Laboratory results: PubChem BioAssay (NCI)
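A five-concentration, 48-hour dose response in 96-well plates underlies each endpoint, interpolated linearly between surrounding concentrations. Abbreviation: GI50, concentration required for 50% inhibition of growth. TGI: concentration producing complete growth inhibition.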

What was measured:
Assay in all cases: NCI anticancer screen, dose series, 48 h
COLO 205 colon = test system: COLO 205 colon
HL-60(TB) leukemia = test system: HL-60(TB) leukemia
UACC-62 melanoma = test system: UACC-62 melanoma
UO-31 renal = test system: UO-31 renal
OVCAR-3 ovarian = test system: OVCAR-3 ovarian
M14 melanoma = test system: M14 melanoma
SF-539 CNS = test system: SF-539 CNS
MDA-MB-468 breast = test system: MDA-MB-468 breast
PC-3 prostate = test system: PC-3 prostate
U251 CNS = test system: U251 CNS
SW-620 colon = test system: SW-620 colon
RPMI-8226 leukemia = test system: RPMI-8226 leukemia
K-562 leukemia = test system: K-562 leukemia
OVCAR-4 ovarian = test system: OVCAR-4 ovarian
HCT-116 colon = test system: HCT-116 colon
SR leukemia = test system: SR leukemia
A549 NSCLC = test system: A549 NSCLC
DU-145 prostate = test system: DU-145 prostate
OVCAR-5 ovarian = test system: OVCAR-5 ovarian
MALME-3M melanoma = test system: MALME-3M melanoma
HCT-15 colon = test system: HCT-15 colon
RXF 393 renal = test system: RXF 393 renal
MDA-MB-231 breast = test system: MDA-MB-231 breast
MCF7 breast = test system: MCF7 breast
SK-OV-3 ovarian = test system: SK-OV-3 ovarian
SK-MEL-2 melanoma = test system: SK-MEL-2 melanoma
SNB-75 CNS = test system: SNB-75 CNS
EKVX NSCLC = test system: EKVX NSCLC
CAKI-1 renal = test system: CAKI-1 renal
KM12 colon = test system: KM12 colon
CCRF-CEM leukemia = test system: CCRF-CEM leukemia
SN12C renal = test system: SN12C renal
MDA-MB-435 = test system: MDA-MB-435
A498 renal = test system: A498 renal
HCC-2998 colon = test system: HCC-2998 colon
OVCAR-8 ovarian = test system: OVCAR-8 ovarian
HS 578T breast = test system: HS 578T breast
SNB-19 CNS = test system: SNB-19 CNS
HOP-92 NSCLC = test system: HOP-92 NSCLC
LOX IMVI melanoma = test system: LOX IMVI melanoma
SF-295 CNS = test system: SF-295 CNS
UACC-257 melanoma = test system: UACC-257 melanoma
NCI-H23 lung = test system: NCI-H23 lung
NCI/ADR-RES ovarian = test system: NCI/ADR-RES ovarian
NCI-H460 lung = test system: NCI-H460 lung
786-0 renal = test system: 786-0 renal
HOP-62 NSCLC = test system: HOP-62 NSCLC
SK-MEL-28 melanoma = test system: SK-MEL-28 melanoma
IGROV1 ovarian = test system: IGROV1 ovarian
NCI-H522 lung = test system: NCI-H522 lung
ACHN renal = test system: ACHN renal
NCI-H226 lung = test system: NCI-H226 lung
SK-MEL-5 melanoma = test system: SK-MEL-5 melanoma
HT29 colon = test system: HT29 colon
MOLT-4 leukemia = test system: MOLT-4 leukemia
SF-268 CNS = test system: SF-268 CNS
TK-10 renal = test system: TK-10 renal
T-47D breast = test system: T-47D breast
BT-549 breast = test system: BT-549 breast

CN1CCN(Cc2ccc(NC(=O)c3cncc(C#Cc4cnc5ccc(N[C@@H]6CCOC6)nn45)c3)cc2C(F)(F)F)CC1
GI50 (COLO 205 colon): 30.1 nM
TGI (COLO 205 colon): 86.8 nM
GI50 (HL-60(TB) leukemia): 85.5 nM
TGI (HL-60(TB) leukemia): 759 nM
GI50 (UACC-62 melanoma): 156 nM
TGI (UACC-62 melanoma): 539 nM
GI50 (UO-31 renal): 1190 nM
TGI (UO-31 renal): 2930 nM
GI50 (OVCAR-3 ovarian): 125 nM
TGI (OVCAR-3 ovarian): 509 nM
GI50 (M14 melanoma): 78.4 nM
TGI (M14 melanoma): 245 nM
GI50 (SF-539 CNS): 19.3 nM
TGI (SF-539 CNS): 74.2 nM
GI50 (MDA-MB-468 breast): 60 nM
TGI (MDA-MB-468 breast): 194 nM
GI50 (PC-3 prostate): 161 nM
TGI (PC-3 prostate): 1160 nM
GI50 (U251 CNS): 216 nM
TGI (U251 CNS): 879 nM
GI50 (SW-620 colon): 94.4 nM
TGI (SW-620 colon): 603 nM
GI50 (RPMI-8226 leukemia): 201 nM
TGI (RPMI-8226 leukemia): 1570 nM
GI50 (K-562 leukemia): < 9.7 nM
TGI (K-562 leukemia): 10100 nM
GI50 (OVCAR-4 ovarian): 138 nM
TGI (OVCAR-4 ovarian): 646 nM
GI50 (HCT-116 colon): 48.6 nM
TGI (HCT-116 colon): 640 nM
GI50 (SR leukemia): 99.2 nM
TGI (SR leukemia): 7320 nM
GI50 (A549 NSCLC): 138 nM
TGI (A549 NSCLC): 1010 nM
GI50 (DU-145 prostate): 148 nM
TGI (DU-145 prostate): 557 nM
GI50 (OVCAR-5 ovarian): 202 nM
TGI (OVCAR-5 ovarian): 618 nM
GI50 (MALME-3M melanoma): 89.7 nM
TGI (MALME-3M melanoma): 299 nM
GI50 (HCT-15 colon): 335 nM
TGI (HCT-15 colon): 1370 nM
GI50 (RXF 393 renal): 71.3 nM
TGI (RXF 393 renal): 217 nM
GI50 (MDA-MB-231 breast): 42.3 nM
TGI (MDA-MB-231 breast): 289 nM
GI50 (MCF7 breast): 51.8 nM
TGI (MCF7 breast): 518 nM
GI50 (SK-OV-3 ovarian): 274 nM
TGI (SK-OV-3 ovarian): 713 nM
GI50 (SK-MEL-2 melanoma): 173 nM
TGI (SK-MEL-2 melanoma): 318 nM
GI50 (SNB-75 CNS): 126 nM
TGI (SNB-75 CNS): 300 nM
GI50 (EKVX NSCLC): 120 nM
TGI (EKVX NSCLC): 383 nM
GI50 (CAKI-1 renal): 128 nM
TGI (CAKI-1 renal): 484 nM
GI50 (KM12 colon): < 9.7 nM
TGI (KM12 colon): 761 nM
GI50 (CCRF-CEM leukemia): < 9.7 nM
TGI (CCRF-CEM leukemia): 356 nM
GI50 (SN12C renal): 34 nM
TGI (SN12C renal): 271 nM
GI50 (MDA-MB-435): 113 nM
TGI (MDA-MB-435): 338 nM
GI50 (A498 renal): 269 nM
TGI (A498 renal): 475 nM
GI50 (HCC-2998 colon): 198 nM
TGI (HCC-2998 colon): 553 nM
GI50 (OVCAR-8 ovarian): 189 nM
TGI (OVCAR-8 ovarian): 963 nM
GI50 (HS 578T breast): 28.8 nM
TGI (HS 578T breast): 398 nM
GI50 (SNB-19 CNS): 222 nM
TGI (SNB-19 CNS): 769 nM
GI50 (HOP-92 NSCLC): 27.7 nM
TGI (HOP-92 NSCLC): 133 nM
GI50 (LOX IMVI melanoma): 55.4 nM
TGI (LOX IMVI melanoma): 187 nM
GI50 (SF-295 CNS): 88.8 nM
TGI (SF-295 CNS): 587 nM
GI50 (UACC-257 melanoma): 361 nM
TGI (UACC-257 melanoma): 4380 nM
GI50 (NCI-H23 lung): 108 nM
TGI (NCI-H23 lung): 265 nM
GI50 (NCI/ADR-RES ovarian): 2780 nM
TGI (NCI/ADR-RES ovarian): 17100 nM
GI50 (NCI-H460 lung): 104 nM
TGI (NCI-H460 lung): 374 nM
GI50 (786-0 renal): 235 nM
TGI (786-0 renal): 712 nM
GI50 (HOP-62 NSCLC): 104 nM
TGI (HOP-62 NSCLC): 355 nM
GI50 (SK-MEL-28 melanoma): 193 nM
TGI (SK-MEL-28 melanoma): 629 nM
GI50 (IGROV1 ovarian): 107 nM
TGI (IGROV1 ovarian): 531 nM
GI50 (NCI-H522 lung): 122 nM
TGI (NCI-H522 lung): 280 nM
GI50 (ACHN renal): 256 nM
TGI (ACHN renal): 1040 nM
GI50 (NCI-H226 lung): 14.4 nM
TGI (NCI-H226 lung): 218 nM
GI50 (SK-MEL-5 melanoma): 193 nM
TGI (SK-MEL-5 melanoma): 556 nM
GI50 (HT29 colon): 87.9 nM
TGI (HT29 colon): 415 nM
GI50 (MOLT-4 leukemia): 26.6 nM
TGI (MOLT-4 leukemia): 919 nM
GI50 (SF-268 CNS): 122 nM
TGI (SF-268 CNS): 377 nM
GI50 (TK-10 renal): 245 nM
TGI (TK-10 renal): 646 nM
GI50 (T-47D breast): 323 nM
TGI (T-47D breast): 3140 nM
GI50 (BT-549 breast): 169 nM
TGI (BT-549 breast): 631 nM
